Among the data in patent publication US8697641B2, “4-amino-4-oxobutanoyl peptide cyclic analogues, inhibitors of viral replication” (Achillion Pharmaceuticals, Inc., priority 2008, dated 2014) are EC50 values, retold here.

Each structure is given as a SMILES string.

The test system of this test is Hepatitis C replicon. Nature of the test: HCV replicon assay (NPT ELISA readout) in Huh-7 replicon-containing cells. In kind it is cell-based, Hepatitis C virus. Particulars: Hepatitis C virus, 72 h; HCV replicon in Huh-7 cells, three days incubation. On the procedure:
Compounds claimed herein are tested for the ability to inhibit viral replication of the Hepatitis C replicon in cultured cells in which the HCV replicon construct has been incorporated. The HCV replicon system was described by Bartenschlager, et. al (Science, 285, pp. 110-113 (1999)). The replicon system is predictive of in vivo anti-HCV activity; compounds that are active in humans uniformly evidence activity in the replicon assay.
In this assay HCV replicon containing cells are treated with different concentrations of the test compound to ascertain the ability of the test compound to suppress replication of the HCV replicon. As a positive control, HCV replicon-containing cells are treated with different concentrations of interferon alpha, a known inhibitor of HCV replication. The replicon assay system includes Neomycin Phosphotransferase (NPT) as a component of the replicon itself in order to detect the transcription of replicon gene products in the host cell. Cells in which the HCV replicon is actively replicating have high levels of NPT; the level of NPT is proportional to HCV replication. […] The NPT level of each sample is measured using a captured ELISA.
A protocol for testing compounds for the ability to inhibit viral replication of the Hepatitis C replicon cultured cells in which the replicon construct has been incorporated, follows.
The HCV replicon contains, 5′-3′, the HCV-IRES, the neomycin phosphotransferase (neo) gene, the IRES of encephalomyocarditis virus, which directs translation of HCV sequences NS3 to NS5B, and the 3′-NTR. The sequence of the HCV replicon has been deposited in GenBank (Accession no. AJ242652).
The replicon is transfected into Huh-7 cells using standard methods such as electroporation.
The equipment and materials include, but are not limited to, Huh-7 HCV replicon-containing cells, maintenance media (DMEM (Dulbecco's modified Eagle media) supplemented with 10% FBS, L-glutamine, non-essential amino acids, penicillin (100 units/ml), streptomycin (100 micrograms/ml), and 500 micrograms/ml of Geneticin (G418), screening media (DMEM supplemented with 10% FBS, L-glutamine, non-essential amino acids, penicillin (100 units/ml) and streptomycin (100 micrograms/ml)), 96 well tissue culture plates (flat bottom), 96 well plates (U bottom for drug dilution), Interferon alpha for positive control, fixation reagent (such as methanol:acetone), primary antibody (rabbit anti-NPTII), secondary antibody: Eu-N1 l, and enhancement solution.
The cells are then seeded onto 96-well plates at a density of 6000-7500 cells/100 microliters/well (6-7.5×10^5 cells/10 ml/plate). The plates are then incubated at 37° C. in a 5% CO2 incubator.
HCV replicon-containing cells are rinsed with once PBS once; 2 mls of trypsin are then added. Cells are incubated at 37° C. in a 5% CO2 incubator for 3-5 minutes. 10 mls of complete medium is added to stop the reaction. Cells are blown gently, put into a 15 ml tube, and spun at 1200 rpm for four minutes. The trypsin/medium solution is removed and 5 mls of medium (500 ml DMEM (high glucose)) from BRL catalog #12430-054; 50 mls 10% FBS, 5% Geneticin G418 (50 mg/ml, BRL catalog #10131-035), 5 ml MEM non-essential amino acids (100×BRL #11140-050) and 5 ml pen-strep (BRL #15140-148) is added. The cells and media are mixed carefully
Cells are plated with screening medium (500 ml DMEM (BRL #21063-029), 50 ml FBS (BRL #10082-147) and 5 ml MEM non-essential amino acid (BRL #11140-050) at 6000-7500 fcells/100 μl/well of 96 well plate (6-7.5×10^5 cells/10 ml/plate). Plates are placed into 37° C. 5% CO2 incubator overnight.
The following morning, drugs (test compounds or interferon alpha) are diluted in 96 well U bottom plates with media or DMSO/media, depending on the final concentration chosen for screening. Generally for 6 concentrations of each test compounds ranging from 10 micromolar to 0.03 micromolar are applied. […]
(In general: A replicon is a self-replicating genome or part of one, used to study replication in cells.)
The term EC50 denotes the concentration at which the effect is half-maximal. Lower therefore signals an effect from little substance. `O=C1N[C@]2(C(=O)NS(=O)(=O)C3CC3)C[C@H]2/C=C\CCCCC[C@H](CC(=O)N2CCC(F)(F)C2)C(=O)N2C[C@H](OC(=O)N3CCc4ccccc4C3)C[C@@H]12` [Compound 114, (2R,6R,14aR, 16aS,Z)-14a-(cyclopropylsulfonyl-carbamoyl)-6-(2-(3,3-difluoropyrrolidin-1-yl)-2-oxoethyl)-5,16-dioxo-1,2,3,5,6,7,8,9,10,11, 13a,14,14a,15,16,16a-hexadecahydrocyclopropa [e]pyrrolo[1,2-a][1,4] diazacyclopentadecin-2-yl 3,4-dihydroisoquinoline-2(1H)-carboxylate] yielded an EC50 of under 1000 nM.
With `COc1ccc2c(O[C@@H]3C[C@H]4C(=O)N[C@]5(C(=O)NS(=O)(=O)C6CC6)C[C@H]5/C=C\CCCCC[C@H](CC(=O)N5CCCCC5)C(=O)N4C3)cc(-c3ccccn3)nc2c1` [Compound 74, (2R,6R,13aS, 14aR,16aS,Z)-N-(cyclopropylsulfonyl)-2-(7-methoxy-2-(pyridin-2-yl)quinolin-4-yloxy)-5,16-dioxo-6-(2-oxo-2-(piperidin-1-yl)ethyl)-1,2,3,5,6,7,8,9,10,11, 13a,14,14a,15,16,16a-hexadecahydrocyclopropa [e]pyrrolo[1,2-a][1,4] diazacyclopentadecine-14a-carboxamide] the figure was under 1000 nM; with `COc1ccc2c(O[C@@H]3C[C@H]4C(=O)N[C@]5(C(=O)NS(=O)(=O)C6CC6)C[C@H]5/C=C\CCCCC[C@H](CC(=O)N5CCN(c6cnccn6)CC5)C(=O)N4C3)cc(-c3ccccc3)nc2c1` [Compound 87, (2R,6R,14aR,16aS,Z)-N-(cyclopropylsulfonyl)-2-(7-methoxy-2-phenylquinolin-4-yloxy)-5,16-dioxo-6-(2-oxo-2-(4-(pyrazin-2-yl)piperazin-1-yl)ethyl)-1,2,3,5,6,7,8,9,10,11, 13a,14,14a,15,16,16a-hexadecahydrocyclopropa [e]pyrrolo[1,2-a][1,4] diazacyclopentadecine-14a-carboxamide], under 1000 nM; with `COc1ccc2c(O[C@@H]3C[C@H]4C(=O)N[C@]5(C(=O)NS(=O)(=O)C6CC6)C[C@H]5/C=C\CCCCC[C@H](CC(=O)N5CCC(C(F)(F)F)CC5)C(=O)N4C3)cc(-c3csc(NC(C)C)n3)nc2c1C` [Compound 121, (2R,6R,13aS,16aS,Z)-N-(cyclopropylsulfonyl)-2-(2-(2-(isopropylamino)thiazol-4-yl)-7-methoxy-8-methylquinolin-4-yloxy)-5,16-dioxo-6-(2-oxo-2-(4-(trifluoromethyl)piperidin-1-yl)ethyl)-1,2,3,5,6,7,8,9,10,11, 13a,14,14a,15,16,16a-hexadecahydrocyclopropa [e]pyrrolo[1,2-a][1,4] diazacyclopentadecine-14a-carboxamide], under 1000 nM.
In turn, `COc1ccc2c(O[C@@H]3C[C@H]4C(=O)N[C@]5(C(=O)NS(=O)(=O)C6CC6)C[C@H]5/C=C\CCCCC[C@H](CC(=O)N5CCCC(F)(F)C5)C(=O)N4C3)nccc2c1Cl` [Compound 123, (2R,6R,13aS,16aS, Z)-2-(5-chloro-6-methoxylsoquinolin-1-yloxy)-N-(cyclopropylsulfonyl)-6-(2-(3,3-difluoropiperidin-1-yl)-2-oxoethyl)-5,16-dioxo-1,2,3,5,6,7,8,9,10,11, 13a,14,14a,15,16,16a-hexadecahydrocyclopropa [e]pyrrolo[1,2-a][1,4] diazacyclopentadecine-14a-carboxamide] had an EC50 of over 10000 nM.
`COc1ccc2c(O[C@@H]3C[C@H]4C(=O)N[C@]5(C(=O)NS(=O)(=O)C6CC6)C[C@H]5/C=C\CCCCC[C@H](CC(=O)N5CCC(F)(F)C5)C(=O)N4C3)cc(-c3ccccc3)nc2c1` [Compound 63, (2R,6R,13aS, 14aR,16aS,Z)-N-(cyclopropylsulfonyl)-6-(2-(3,3 - difluoropyrrolidin-1-yl)-2-oxoethyl)-2-(7-methoxy-2-phenylquinolin-4-yloxy)-5,16-dioxo-1,2,3,5,6,7,8,9,10,11, 13a,14,14a,15,16,16a-hexadecahydrocyclopropa [e]pyrrolo[1,2-a][1,4] diazacyclopentadecine-14a-carboxamide]: the EC50 was under 1000 nM.
For `COc1ccc2c(O[C@@H]3C[C@H]4C(=O)NC5(C(=O)O)CC5/C=C\CCCCC[C@@H](CC(=O)N5CCCCC5)C(=O)N4C3)cc(-c3ccccc3)nc2c1` (stereo partly drawn) [Compound 43, (2R,6S,16aS,Z)-2-(7-methoxy-2-phenylquinolin-4-yloxy)-5,16-dioxo-6-(2-oxo-2-(piperidin-1-yl)ethyl)-1,2,3,5,6,7,8,9,10,11, 13a,14,14a,15,16,16a-hexadecahydrocyclopropa [e]pyrrolo[1,2-a][1,4] diazacyclopentadecine-14a-carboxylic acid] the value was 1000 to 10000 nM; for `COc1ccc2c(O[C@@H]3C[C@H]4C(=O)N[C@H](C(=O)NS(=O)(=O)C5CC5)C/C=C\CCCCC[C@H](CC(=O)N5CCCCC5)C(=O)N4C3)cc(-c3ccccc3)nc2c1` [Compound 57, (3S,12R,16R,17aS,Z)-N-(cyclopropylsulfonyl)-16-(7-methoxy-2-phenylquinolin-4-yloxy)-1,13-dioxo-12-(2-oxo-2-(piperidin-1-yl)ethyl)-2,3,4,7,8,9,10,11, 12,13,15,16,17,17a-tetradecahydro-1H-pyrrolo[1,2-a][1,4] diazacyclopentadecine-3-carboxamide], 1000 to 10000 nM.
As to `COc1ccc2c(O[C@@H]3C[C@H]4C(=O)N[C@]5(C(=O)NS(=O)(=O)C6CC6)C[C@H]5/C=C\CCCCC[C@H](CC(=O)N5CCCC(C(F)(F)F)C5)C(=O)N4C3)cc(-c3ccccc3)nc2c1` (stereo partly drawn) [Compound 71, (2R,6R,13aS, 14aR,16aS,Z)-N-(cyclopropylsulfonyl)-2-(7-methoxy-2-phenylquinolin-4-yloxy)-5,16-dioxo-6-(2-oxo-2-(3-(trifluoromethyl)piperidin-1-yl)ethyl)-1,2,3,5,6,7,8,9,10,11, 13a,14,14a,15,16,16a-hexadecahydrocyclopropa [e]pyrrolo[1,2-a][1,4] diazacyclopentadecine-14a-carboxamide], the EC50 was under 1000 nM.
Take `COc1ccc2c(O[C@@H]3C[C@H]4C(=O)N[C@]5(C(=O)NS(=O)(=O)C6CC6)C[C@H]5/C=C\CCCCC[C@H](CC(=O)O)C(=O)N4C3)cc(-c3ccccn3)nc2c1Cl` [Compound 89, 2-((2R,6R,14aR, 16aS,Z)-2-(8-chloro-7-methoxy-2-(pyridin-2-yl)quinolin-4-yloxy)-14a-(cyclopropylsulfonyl-carbamoyl)-5,16-dioxo-1,2,3,5,6,7,8,9,10,11, 13a,14,14a,15,16,16a-hexadecahydrocyclopropa [e]pyrrolo[1,2-a][1,4]diazacyclopentadecin-6-yl)acetic acid]: the EC50 was under 1000 nM.
Take `COc1ccc2c(O[C@@H]3C[C@H]4C(=O)N[C@](C)(C(=O)NS(=O)(=O)C5CC5)C/C=C\CCCCC[C@H](CC(=O)N5CCCCC5)C(=O)N4C3)cc(-c3ccccc3)nc2c1` [Compound 66, (3S,12R,16R,17aS,Z)-N-(cyclopropylsulfonyl)-16-(7-methoxy-2-phenylquinolin-4-yloxy)-3-methyl-1,13-dioxo-12-(2-oxo-2-(piperidin-1-yl)ethyl)-2,3,4,7,8,9,10, 11,12,13,15,16,17,17a-tetradecahydro-1H-pyrrolo[1,2-a][1,4] diazacyclopentadecine-3-carboxamide]: the concentration for a half-maximal effect (EC50) fell in the range of 1000 to 10000 nM.
